We go through eleven compounds from paper PMC6954049 (Antiviral Research, 2019).

pEC50: −log10 of the molar value. Structures can show the parent of a compound that is named as a salt.

A short description of one series: in vitro. The note with it: human, CC50 (μM) AlamarBlue assay. For orientation: The colour change of resazurin is a common sign of viable cells or microbes.
For the next series, the target named is LCMV MG (Lymphocytic choriomeningitis virus, UniProt P09992+P14240). Format: cell-based.
LCMV MG, sequence (P09992 whole entry, looked up): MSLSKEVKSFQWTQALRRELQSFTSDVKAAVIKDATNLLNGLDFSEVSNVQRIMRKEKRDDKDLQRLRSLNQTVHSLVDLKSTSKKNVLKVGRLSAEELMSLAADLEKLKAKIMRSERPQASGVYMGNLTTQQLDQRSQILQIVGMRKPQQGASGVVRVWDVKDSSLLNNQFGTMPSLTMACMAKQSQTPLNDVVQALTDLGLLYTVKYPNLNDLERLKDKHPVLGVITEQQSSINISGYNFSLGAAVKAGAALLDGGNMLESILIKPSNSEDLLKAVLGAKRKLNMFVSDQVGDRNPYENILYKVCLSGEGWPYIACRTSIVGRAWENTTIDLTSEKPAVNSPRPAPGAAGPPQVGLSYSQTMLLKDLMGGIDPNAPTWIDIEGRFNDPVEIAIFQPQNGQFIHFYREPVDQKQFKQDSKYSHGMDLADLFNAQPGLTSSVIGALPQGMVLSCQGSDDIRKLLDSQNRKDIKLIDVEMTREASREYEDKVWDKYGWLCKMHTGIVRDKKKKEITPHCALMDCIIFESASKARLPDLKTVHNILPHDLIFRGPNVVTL
LCMV MG, sequence (P14240 whole entry, looked up): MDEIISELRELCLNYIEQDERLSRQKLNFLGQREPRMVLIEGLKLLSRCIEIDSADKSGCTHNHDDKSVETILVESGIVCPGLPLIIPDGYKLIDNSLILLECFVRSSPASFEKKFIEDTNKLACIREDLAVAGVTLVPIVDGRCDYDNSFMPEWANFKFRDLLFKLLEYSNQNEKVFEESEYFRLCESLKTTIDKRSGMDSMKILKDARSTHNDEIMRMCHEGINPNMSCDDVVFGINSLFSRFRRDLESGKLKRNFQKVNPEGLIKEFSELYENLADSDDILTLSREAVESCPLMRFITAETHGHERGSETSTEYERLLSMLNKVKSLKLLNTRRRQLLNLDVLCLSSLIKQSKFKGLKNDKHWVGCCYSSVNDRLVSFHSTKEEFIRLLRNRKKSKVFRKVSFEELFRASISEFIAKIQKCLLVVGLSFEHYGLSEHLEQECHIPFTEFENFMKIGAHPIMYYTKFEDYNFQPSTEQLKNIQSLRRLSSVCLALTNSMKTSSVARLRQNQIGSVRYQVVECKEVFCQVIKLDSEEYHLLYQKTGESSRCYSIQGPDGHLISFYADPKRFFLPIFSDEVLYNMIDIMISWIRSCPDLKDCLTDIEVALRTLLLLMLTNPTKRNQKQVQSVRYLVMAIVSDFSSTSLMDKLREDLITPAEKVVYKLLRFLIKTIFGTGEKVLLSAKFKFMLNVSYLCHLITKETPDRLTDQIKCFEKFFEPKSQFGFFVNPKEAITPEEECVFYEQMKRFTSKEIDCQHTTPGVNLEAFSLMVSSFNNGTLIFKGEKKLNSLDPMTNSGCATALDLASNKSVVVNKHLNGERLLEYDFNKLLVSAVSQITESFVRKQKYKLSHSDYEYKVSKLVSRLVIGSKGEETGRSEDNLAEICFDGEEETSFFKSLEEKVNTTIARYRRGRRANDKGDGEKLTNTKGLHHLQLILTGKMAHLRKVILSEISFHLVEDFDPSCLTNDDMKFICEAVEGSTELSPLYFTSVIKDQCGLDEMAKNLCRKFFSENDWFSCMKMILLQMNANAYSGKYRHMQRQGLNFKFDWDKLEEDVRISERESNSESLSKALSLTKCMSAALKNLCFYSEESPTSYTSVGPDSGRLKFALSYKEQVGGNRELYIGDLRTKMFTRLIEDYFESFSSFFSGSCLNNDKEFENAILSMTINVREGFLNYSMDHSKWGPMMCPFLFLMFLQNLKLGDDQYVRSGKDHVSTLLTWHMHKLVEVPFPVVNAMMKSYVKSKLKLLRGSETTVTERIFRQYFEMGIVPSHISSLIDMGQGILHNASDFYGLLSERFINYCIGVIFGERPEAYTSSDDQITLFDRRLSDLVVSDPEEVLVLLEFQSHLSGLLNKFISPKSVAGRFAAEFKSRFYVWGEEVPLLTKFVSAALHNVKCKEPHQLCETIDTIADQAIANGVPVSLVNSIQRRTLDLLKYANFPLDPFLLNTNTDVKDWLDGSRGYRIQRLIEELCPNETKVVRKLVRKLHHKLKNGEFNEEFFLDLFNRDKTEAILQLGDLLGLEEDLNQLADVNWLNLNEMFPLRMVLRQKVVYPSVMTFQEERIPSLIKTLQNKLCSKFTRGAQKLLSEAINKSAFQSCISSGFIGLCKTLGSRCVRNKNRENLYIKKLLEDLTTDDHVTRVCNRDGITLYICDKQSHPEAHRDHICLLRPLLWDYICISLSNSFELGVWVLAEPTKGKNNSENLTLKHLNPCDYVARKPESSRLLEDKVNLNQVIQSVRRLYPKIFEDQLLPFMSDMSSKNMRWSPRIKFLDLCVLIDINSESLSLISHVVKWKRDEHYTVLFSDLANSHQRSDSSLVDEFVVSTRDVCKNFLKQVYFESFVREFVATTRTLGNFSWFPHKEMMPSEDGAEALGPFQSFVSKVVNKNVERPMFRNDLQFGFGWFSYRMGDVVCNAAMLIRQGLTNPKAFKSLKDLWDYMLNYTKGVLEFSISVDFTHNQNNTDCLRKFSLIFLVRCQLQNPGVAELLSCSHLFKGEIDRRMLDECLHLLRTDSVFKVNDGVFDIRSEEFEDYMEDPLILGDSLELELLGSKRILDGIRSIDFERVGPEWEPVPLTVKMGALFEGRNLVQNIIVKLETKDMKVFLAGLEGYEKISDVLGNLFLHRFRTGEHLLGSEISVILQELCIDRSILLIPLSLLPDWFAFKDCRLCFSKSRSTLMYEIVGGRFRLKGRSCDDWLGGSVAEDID
Series [1] deals with LCMV/vRNP cells (HEK293T).
A further series has as its system rLCMV/GFP. Kind of series: microbe, parasite or virus in culture. The format is cell-based.

For `S=C(NCc1ccc2c(c1)OCO2)N1CCN(c2ncnc3c2oc2ccccc23)CC1` [Amuvatinib], the CC50 in the series “in vitro” amounted to 28 µM. As for `CCCCCC[C@H]1C(=O)O[C@H](C)[C@H](NC(=O)c2cccc(NC=O)c2O)C(=O)O[C@@H](C)[C@@H]1OC(=O)CC(C)C` [Antimycin A], the “effect on LCMV MG activity (GFP expression)” value (shortened to “effect on LCMV MG activity”) at LCMV MG was “dose-dependent inhibitory effect”. Consider `CO/C=C(/C(=O)OC)c1ccccc1Oc1cc(Oc2ccccc2C#N)ncn1` [Azoxystrobin], for which, in series [1], the CC50 came to 62.7 µM. On to `COc1ccc(C(O)C(C)Oc2ccc(C3OC(c4ccc(OC(C)C(O)c5ccc(OC)c(OC)c5)c(OC)c4)C(C)C3C)cc2OC)cc1OC` (stereo not shown) [Manassantin A], for which, on LCMV MG, the “effect on LCMV MG activity” value was “dose-dependent inhibitory effect”. The same compound came in with a CC50 in “in vitro” of 24.3 µM. `CC[C@@]1([C@H]2O[C@H]([C@H]3O[C@@](O)(CO)[C@H](C)C[C@@H]3C)C[C@H]2C)CC[C@H]([C@@]2(C)CC[C@]3(C[C@H](O)[C@@H](C)[C@@H]([C@H](C)[C@H](OC)[C@@H](C)C(=O)O)O3)O2)O1` [Monensin sodium salt] showed a CC50 in series [1] of 5.95 µM.

As to `CC[C@@H](C(=O)O)[C@@H]1O[C@@H]([C@@H](C)[C@H](O)[C@H](C)C(=O)[C@H](CC)[C@H]2O[C@]3(C=C[C@@H](O)[C@]4(CC[C@@](C)([C@H]5CC[C@](O)(CC)[C@H](C)O5)O4)O3)[C@H](C)C[C@@H]2C)[C@@H](C)C[C@@H]1C` [Narasin], the “effect on LCMV MG activity” value at LCMV MG is given as “dose-dependent inhibitory effect”. This compound also came in with a CC50 in the series “in vitro” of 4.44 µM.

With `O=c1[nH]c2ccccc2n1C1CCN(CCCC(c2ccc(F)cc2)c2ccc(F)cc2)CC1` [Pimozide], on LCMV MG, the “effect on LCMV MG activity” value is reported as “dose-dependent inhibitory effect”. The pEC50 is −log10 of the EC50, conventionally taken in molar units. Read a high pEC50 as a small EC50. Take `C=C(C)[C@H]1Cc2c(ccc3c2O[C@@H]2COc4cc(OC)c(OC)cc4[C@@H]2C3=O)O1` [Rotenone]: the pEC50 with rLCMV/GFP (Mammarenavirus choriomeningitidis, A549, 48 h) was 6.18. Regarding `O=C1c2ccccc2-n2c1nc1ccccc1c2=O` [Tryptanthrin], the CC50 in “in vitro” was 12.2 µM.

For `CC(C)[C@@H]1NC(=O)[C@H](C)OC(=O)[C@@H](C(C)C)NC(=O)[C@@H](C(C)C)OC(=O)[C@H](C(C)C)NC(=O)[C@H](C)OC(=O)[C@@H](C(C)C)NC(=O)[C@@H](C(C)C)OC(=O)[C@H](C(C)C)NC(=O)[C@H](C)OC(=O)[C@@H](C(C)C)NC(=O)[C@@H](C(C)C)OC1=O` [Valinomycin], the CC50 in the series “in vitro” was 1.93 µM.

Consider PF429242, for which, in the series on rLCMV/GFP, the “effect on multiplication of live LCMV (rLCMV/GFP)” value is recorded as “inhibited”.
